Data on one compound can be found in patent US6022873A, “Metalloproteinase inhibitors” (British Biotech Pharmaceuticals Limited, priority 1996, dated 2000).

The assay has as its target T1, human fibroblast collagenase (Homo sapiens, UniProt P03956).
T1 sequence (P03956 100-469): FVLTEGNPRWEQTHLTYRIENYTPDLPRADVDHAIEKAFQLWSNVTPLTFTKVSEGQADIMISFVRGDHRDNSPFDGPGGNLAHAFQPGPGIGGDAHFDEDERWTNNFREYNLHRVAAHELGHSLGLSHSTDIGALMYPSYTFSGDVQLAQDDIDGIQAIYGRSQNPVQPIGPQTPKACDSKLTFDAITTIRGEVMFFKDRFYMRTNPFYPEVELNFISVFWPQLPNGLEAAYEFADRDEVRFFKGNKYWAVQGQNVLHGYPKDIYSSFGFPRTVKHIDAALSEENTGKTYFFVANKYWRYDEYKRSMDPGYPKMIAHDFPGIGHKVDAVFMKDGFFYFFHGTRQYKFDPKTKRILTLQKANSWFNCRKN
The assay can be described thus: Human fibroblast collagenase inhibition assay (14C-acetylated collagen hydrolysis, Cawston and Barrett). In kind it is biochemical. The conditions noted are these: 37° C., 16 hours, acetylated 14C collagen, 25 mM Hepes pH 7.5; read-out: inhibitor concentration effecting 50% inhibition of the collagenase activity (IC50). How it is done:
The potency of compounds of the present invention as inhibitors of human fibroblast collagenase may be determined by the procedure of Cawston and Barrett, (Anal. Biochem., 99, 340-345, 1979), hereby incorporated by reference, whereby a 1 mM solution of the compound being tested, or a dilution thereof, was incubated at 37° C. for 16 hours with collagen and human fibroblast collagenase (buffered with 25 mM Hepes, pH 7.5 containing 5 mM CaCl2, 0.05% Brij 35 and 0.02% NaN3). The collagen was acetylated ^14 C collagen prepared by the method of Cawston and Murphy, (Methods in Enzymology, 80, 711, 1981), hereby incorporated by reference. The samples were centrifuged to sediment undigested collagen, and an aliquot of the radioactive supernatant removed for assay on a scintillation counter as a measure of hydrolysis.

With `COc1ccc(S(=O)(=O)NCC[C@H](C(=O)NO)[C@@H](CC(C)C)C(=O)N2CCCCC2)cc1` [Example 2, 2S-[(4-Methoxybenzenesulfonyl-amino)-ethyl]-5-methyl-3R-(piperidine-1-carbonyl)-hexanoic acid hydroxyamide], the IC50 is roughly 50 nM.
